Data as given in patent US8211911B2, “Compounds as kinase inhibitors” (priority 2008, dated 2012).
Where two headings read alike, the source gives them in different places.

Assays:
NSCLC A549 cell line = experiment: MTT assay against human tumor NSCLC A549 cell line; type: cell-based
colon LOVO cell line = experiment: MTT assay against colon LOVO cell line; type: cell-based, human

| IC50 (NSCLC A549 cell line; Homo sapiens) [µM] | IC50 (colon LOVO cell line; Homo sapiens) [µM] | IC50 (NSCLC A549 cell line) [µM] | IC50 (colon LOVO cell line) [µM] | SMILES |
| --- | --- | --- | --- | --- |
| 0.2 | 0.7 | – | – | CNC(=O)c1c(C)oc2cc(Oc3ccnc4cc(OCCN5CC(OC)C6(CC6)C5)c(OC)cc34)ccc12 (stereo not drawn) [Example 14, 6-(6-Methoxy-7-(2-(7-methoxy-5-azaspiro[2.4]heptan-5-yl)ethoxy)quinolin-4-yloxy)-N,2-dimethylbenzofuran-3-carboxamide] |
| – | – | 0.2 | 0.7 | CNC(=O)c1c(C)oc2cc(Oc3ccnc4cc(OCCCN5CC6(CC6)C6(C5)OCCO6)c(OC)cc34)ccc12 [Example 16, 6-(6-Methoxy-7-[3-(5,8-Dioxa-10-azadispiro[2.0.4.3]undecane)propoxy]quinolin-4-yloxy)-N,2-dimethylbenzofuran-3-carboxamide] |
| 0.3 | 0.9 | – | – | CNC(=O)c1cccc2cc(Oc3ccnc4cc(OCCCN5CC(OC)C6(CC6)C5)c(OC)cc34)ccc12 (stereo not drawn) [Example 29, 6-(6-Methoxy-7-(3-(7-methoxy-5-azaspiro[2.4]heptan-5-yl)propoxy)quinolin-4-yloxy)-N-methyl-1-naphthamide] |
| – | – | 0.8 | 1.1 | CNC(=O)c1cccc2cc(Oc3ccnc4cc(OCCCN5CC6(CC6)C6(C5)OCCO6)c(OC)cc34)ccc12 [Example 26, 6-(6-Methoxy-7-[3-(5,8-Dioxa-10-azadispiro[2.0.4.3]undecane)propoxy]quinolin-4-yloxy)-N-methyl-1-naphthamide] |
| 1 | 1.5 | – | – | CNC(=O)c1cccc2cc(Oc3ccnc4cc(OCCN5CC(OC)C6(CC6)C5)c(OC)cc34)ccc12 (stereo not drawn) [Example 24, 6-(6-Methoxy-7-(2-(7-methoxy-5-azaspiro[2.4]heptan-5-yl)ethoxy)quinolin-4-yloxy)-N-methyl-1-naphthamide] |
| 0.7 | 1.1 | – | – | CNC(=O)c1cccc2cc(Oc3ccnc4cc(OCCN5CC(=O)C6(CC6)C5)c(OC)cc34)ccc12 [Example 22, 6-(6-Methoxy-7-(2-(7-oxo-5-azaspiro[2.4]heptan-5-yl)ethoxy)quinolin-4-yloxy)-N-methyl-1-naphthamide] |
| 0.8 | 1.2 | – | – | CNC(=O)c1cccc2cc(Oc3ccnc4cc(OCCN5CC(O)C6(CC6)C5)c(OC)cc34)ccc12 (stereo not drawn) [Example 23, 6-(7-(2-(7-Hydroxy-5-azaspiro[2.4]heptan-5-yl)ethoxy)-6-methoxyquinolin-4-yloxy)-N-methyl-1-naphthamide] |
| – | – | 0.8 | 1.1 | CNC(=O)c1cccc2cc(Oc3ccnc4cc(OCCN5CC6(CC6)C6(C5)OCCO6)c(OC)cc34)ccc12 [Example 21, 6-(6-Methoxy-7-[2-(5,8-Dioxa-10-azadispiro[2.0.4.3]undecane)ethoxy]quinolin-4-yloxy)-N-methyl-1-naphthamide] |
| 0.9 | 1 | – | – | C=C1CN(CCCOc2cc3nccc(Oc4ccc5c(C(=O)NC)cccc5c4)c3cc2OC)CC12CC2 [Example 30, 6-(6-Methoxy-7-(3-(7-methylene-5-azaspiro[2.4]heptan-5-yl)propoxy)quinolin-4-yloxy)-N-methyl-1-naphthamide] |
| 0.2 | 0.7 | – | – | CNC(=O)c1c(C)oc2cc(Oc3ccnc4cc(OCCCN5CC(OC)C6(CC6)C5)c(OC)cc34)ccc12 (stereo not drawn) [Example 19, 6-(6-Methoxy-7-(3-(7-methoxy-5-azaspiro[2.4]heptan-5-yl)propoxy)quinolin-4-yloxy)-N,2-dimethyl-benzofuran-3-carboxamide] |
| – | – | 0.3 | 0.9 | CNC(=O)c1c(C)oc2cc(Oc3ccnc4cc(OCCCN5CC(=O)C6(CC6)C5)c(OC)cc34)ccc12 [Example 17, 6-(6-Methoxy-7-(3-(7-oxo-5-azaspiro[2.4]heptan-5-yl)propoxy)quinolin-4-yloxy)-N,2-benzofuran-3-carboxamide] |
| 0.1 | 0.4 | – | – | C=C1CN(CCCOc2cc3nccc(Oc4ccc5[nH]c(C)cc5c4F)c3cc2OC)CC12CC2 [Example 10, 4-(4-Fluoro-2-methyl-1H-indol-5-yloxy)-6-methoxy-7-(3-(7-methylene-5-azaspiro[2.4]heptan-5-yl)propoxy)quinoline] |
| 0.3 | 0.9 | – | – | C=C1CN(CCOc2cc3nccc(Oc4ccc5c(C(=O)NC)cccc5c4)c3cc2OC)CC12CC2 [Example 25, 6-(6-Methoxy-7-(2-(7-methylene-5-azaspiro[2.4]heptan-5-yl)ethoxy)quinolin-4-yloxy)-N-methyl-1-naphthamide] |
| 0.5 | 0.8 | – | – | CNC(=O)c1c(C)oc2cc(Oc3ccnc4cc(OCCCN5CC(O)C6(CC6)C5)c(OC)cc34)ccc12 (stereo not drawn) [Example 18, 6-(7-(3-(7-Hydroxy-5-azaspiro[2.4]heptan-5-yl)propoxy)-6-methoxyquinolin-4-yloxy)-N,2-dimethyl-benzofuran-3-carboxamide] |
| 0.2 | 0.9 | – | – | CNC(=O)c1c(C)oc2cc(Oc3ccnc4cc(OCCN5CC(O)C6(CC6)C5)c(OC)cc34)ccc12 (stereo not drawn) [Example 13, 6-(7-(2-(7-Hydroxy-5-azaspiro[2.4]heptan-5-yl)ethoxy)-6-methoxyquinolin-4-yloxy)-N,2-dimethylbenzofuran-3-carboxamide] |
| 0.1 | 0.4 | – | – | COc1cc2c(Oc3ccc4[nH]c(C)cc4c3F)ccnc2cc1OCCN1CC(O)C2(CC2)C1 (stereo not drawn) [Example 3, 5-(2-(4-(4-fluoro-2-methyl-1H-indol-5-yloxy)-6-methoxyquinolin-7-yloxy)ethyl)-5-azaspiro[2.4]-heptan-7-ol] |
| 0.1 | 0.4 | – | – | COc1cc2c(Oc3ccc4[nH]c(C)cc4c3F)ccnc2cc1OCCCN1CC(OC)C2(CC2)C1 (stereo not drawn) [Example 9, 4-(4-Fluoro-2-methyl-1H-indol-5-yloxy)-6-methoxy-7-(3-(7-methoxy-5-azaspiro[2.4]heptan-5-yl)propoxy)quinoline] |
| 0.3 | 0.9 | – | – | CNC(=O)c1c(C)oc2cc(Oc3ccnc4cc(OCCN5CC(=O)C6(CC6)C5)c(OC)cc34)ccc12 [Example 12, 6-(6-Methoxy-7-(2-(7-oxo-5-azaspiro[2.4]heptan-5-yl)ethoxy)quinolin-4-yloxy)-N,2-dimethylbenzofuran-3-carboxamide] |
| 0.1 | 0.3 | – | – | COc1cc2c(Oc3ccc4[nH]c(C)cc4c3F)ccnc2cc1OCCCN1CC(O)C2(CC2)C1 (stereo not drawn) [Example 8, 5-(3-(4-(4-Fluoro-2-methyl-1H-indol-5-yloxy)-6-methoxyquinolin-7-yloxy)propyl)-5-azaspiro[2.4]-heptan-7-ol] |
| 0.3 | 0.9 | – | – | C=C1CN(CCOc2cc3nccc(Oc4ccc5c(C(=O)NC)c(C)oc5c4)c3cc2OC)CC12CC2 [Example 15, 6-(6-Methoxy-7-(2-(7-methylene-5-azaspiro[2.4]heptan-5-yl)ethoxy)quinolin-4-yloxy)-N,2-dimethyl-benzofuran-3-carboxamide] |
| 0.1 | 0.3 | – | – | COc1cc2c(Oc3ccc4[nH]c(C)cc4c3F)ccnc2cc1OCCN1CC(=O)C2(CC2)C1 [Example 2, 5-(2-(4-(4-Fluoro-2-methyl-1H-indol-5-yloxy)-6-methoxyquinolin-7-yloxy)ethyl)-5-azaspiro[2.4]-heptan-7-one] |
| 0.09 | 0.2 | – | – | COc1cc2c(Oc3ccc4[nH]c(C)cc4c3F)ccnc2cc1OCCCN1CC(=O)C2(CC2)C1 [Example 7, 5-(3-(4-(4-Fluoro-2-methyl-1H-indol-5-yloxy)-6-methoxyquinolin-7-yloxy)propyl)-5-azaspiro[2.4]-heptan-7-one] |
| 0.4 | 0.9 | – | – | CNC(=O)c1cccc2cc(Oc3ccnc4cc(OCCCN5CC(=O)C6(CC6)C5)c(OC)cc34)ccc12 [Example 27, 6-(6-Methoxy-7-(3-(7-oxo-5-azaspiro[2.4]heptan-5-yl)propoxy)quinolin-4-yloxy)-N-methyl-1-naphthamide] |
| 1 | 1.5 | – | – | CNC(=O)c1cccc2cc(Oc3ccnc4cc(OCCCN5CC(O)C6(CC6)C5)c(OC)cc34)ccc12 (stereo not drawn) [Example 28, 6-(7-(3-(7-Hydroxy-5-azaspiro[2.4]heptan-5-yl)propoxy)-6-methoxyquinolin-4-yloxy)-N-methyl-1-naphthamide] |
| 0.08 | 0.4 | – | – | COc1cc2c(Oc3ccc4[nH]c(C)cc4c3F)ccnc2cc1OCCN1CC(OC)C2(CC2)C1 (stereo not drawn) [Example 4, 4-(4-Fluoro-2-methyl-1H-indol-5-yloxy)-6-methoxy-7-(2-(7-methoxy-5-azaspiro[2.4]heptan-5-yl)ethoxy)quinoline] |
| 0.1 | 0.4 | – | – | C=C1CN(CCOc2cc3nccc(Oc4ccc5[nH]c(C)cc5c4F)c3cc2OC)CC12CC2 [Example 5, 4-(4-Fluoro-2-methyl-1H-indol-5-yloxy)-6-methoxy-7-(2-(7-methylene-5-azaspiro[2.4]heptan-5-yl)ethoxy)quinoline] |
| 0.3 | 0.9 | – | – | C=C1CN(CCCOc2cc3nccc(Oc4ccc5c(C(=O)NC)c(C)oc5c4)c3cc2OC)CC12CC2 [Example 20, 6-(6-Methoxy-7-(3-(7-methylene-5-azaspiro[2.4]heptan-5-yl)propoxy)quinolin-4-yloxy)-N,2-dimethylbenzofuran-3-carboxamide] |
| – | – | 0.2 | 0.7 | CNC(=O)c1c(C)oc2cc(Oc3ccnc4cc(OCCN5CC6(CC6)C6(C5)OCCO6)c(OC)cc34)ccc12 [Example 11, 6-(6-Methoxy-7-[2-(5,8-Dioxa-10-azadispiro[2.0.4.3]undecane)ethoxy]quinolin-4-yloxy)-N,2-dimethylbenzofuran-3-carboxamide] |

| SMILES | IC50 (NSCLC A549 cell line; Homo sapiens) [µM] | IC50 (colon LOVO cell line; Homo sapiens) [µM] | IC50 (NSCLC A549 cell line) [µM] | IC50 (colon LOVO cell line) [µM] |
| --- | --- | --- | --- | --- |
| COc1cc2c(Oc3ccc4[nH]c(C)cc4c3F)ccnc2cc1OCCN1CC2(CC2)C2(C1)OCCO2 [Example 1, 4-(4-Fluoro-2-methyl-1H-indol-5-yloxy)-6-methoxy-7-[2-(5,8-Dioxa-10-azadispiro[2.0.4.3]-undecane)ethoxy]quinoline] | – | – | 0.09 | 0.2 |
| COc1cc2c(Oc3ccc4[nH]c(C)cc4c3F)ccnc2cc1OCCCN1CC2(CC2)C2(C1)OCCO2 [Example 6, 4-(4-fluoro-2-methyl-1H-indol-5-yloxy)-6-methoxy-7-[3-(5,8-Dioxa-10-azadispiro[2.0.4.3]-undecane)propoxy]quinoline] | – | – | 0.08 | 0.4 |
